Patent US20240365774A1, “METHODS FOR CRYOPROTECTION AND LYOPROTECTION OF CELLS” (LONZA LTD, priority 2021, published 2024)
Entries after “also recorded” stand apart in the source; their conditions may differ.

Test system: human mesenchymal stem cells (hMSCs)
Assay: Freeze-thaw of hMSCs in CPA formulations at −80° C., viability by alamarBlue assay
Format: cell-based
Method: Adherent bone marrow derived human mesenchymal stem cells (hMSCs) (ATCC) were expanded to create a cell bank and stored in the vapor phase of liquid nitrogen in growth medium supplemented with 50% FBS and 7.5% DMSO at passage 3. Aliquots of those samples were warmed in a 37° C. water bath and cultured in MSCGM™ Mesenchymal Stem Cell Growth Medium BulletKit™ (containing FBS, Lonza); a commercially available medium that facilitates undifferentiated proliferation of hMSCs. The cells were kept in a humidified incubator at 37° C. and 5% CO2, whilst the growth medium was changed every 3-4 days. When hMSCs reached confluence of ˜90%, they were split and re-seeded at ˜5000 cells/cm^2 to facilitate further expansion. For experiments, cells between passages 4-8 were used. […]
For frozen samples, that is for samples after freezing and thawing, viability was measured by performing an alamarBlue™ assay (Invitrogen) according to the manufacturer's instructions. […] This reaction only takes place in cells that are metabolically active (viable), thus correlating measured fluorescence with viable cells. […] Assay reagent was then applied and, after a 4 h incubation, fluorescence was measured using a SpectraMax® iD3 with wavelengths of λex=550 nm and λem=590 nm. Background fluorescence values were subtracted from the measurements and compared to fluorescence values of untreated cells.

SMILES | viable cells after freeze-thaw (cryoprotection) (urea alone, 0.05, 0.1, 0.2 and 0.5 M, FIG. 1A) | viable cells after freeze-thaw (5% DMSO control)
NC(N)=O [urea] | virtually no viable cells; also recorded: does not facilitate cryoprotection | –
C[S+](C)[O-] [DMSO, dimethyl sulfoxide, reference compound] | – | 58%
